Laboratory results reported in ChEMBL document CHEMBL4376831, “Enhancing the Cell Permeability of Stapled Peptides with a Cyclic Cell-Penetrating Peptide” (J Med Chem, 2019).
Active and inactive are the calls of the source. The calls are words filed in the database; no cut-off is given here. *1 amine or outer side, *2 acyl side, *3 side chain or, on linkers, in order; H or OH if unused. Where a SMILES comes first, the peptide text is derived from it. Bridges are numbered along the chain shown (N, C = ends). Roman numbers before positions name the chains, in order. [ ]: non-standard residue; d: D form. The star is where a group is joined. X2 = O=C(O)c1cc(C(=O)*)ccc1-c1c2ccc3cc(O)ccc3c2oc2c1ccc1cc(=O)ccc12; 2Nal = N[C@@H](Cc1ccc2ccccc2c1)C(=O)O; mXylylene = c1cc(C[*:1])cc(C[*:2])c1; AEEA = NCCOCCOCC(=O)O; βAla = NCCC(=O)O

Experiments:
[1] = test system: SW480; test: Antiproliferative activity against human SW480 cells incubated for 72 hrs by MTT assay; format: functional, cell-based; settings: SW480, 72 h
[2] = test system: MCF7; test: Antiproliferative activity against human MCF7 cells incubated for 72 hrs by MTT assay; format: functional, cell-based
[3] = test system: HeLa; test: Induction of cell membrane disruption in human HeLa cells incubated for 4 hrs using FAM-labeled compound by LDH assay; format: cell-based
[4] = test system: HeLa; test: Cytotoxicity against human HeLa cells incubated for 72 hrs using FAM-labeled compound by MTT assay; format: cell-based
[5] = test system: SJSA-1; settings: Homo sapiens
[6] = test system: SJSA-1; test: Antiproliferative activity against human SJSA1 cells expressing wild-type p53 upto 20 uM incubated for 72 hrs by MTT assay; format: functional, cell-based
[7] = test system: MCF7; test: Induction of cell membrane disruption in human MCF7 cells expressing wild-type p53 at =>20 uM incubated for 4 hrs by LDH assay relative to control; format: functional
[8] = test system: SJSA-1; test: cells; settings: Homo sapiens, SJSA-1, 72 h
[9] = test system: HCT-116; test: Induction of apoptosis in human HCT116 cells expressing wild-type p53 at =< 10 uM incubated for 48 hrs by Annexin V/propidium iodide-staining based flow cytometric analysis relative to control; format: functional
[10] = test system: SJSA-1; test: Induction of apoptosis in human SJSA1 cells at 10 uM incubated for 48 hrs by Annexin V/propidium iodide-staining based flow cytometric analysis; format: functional, cell-based
[11] = test system: HeLa; test: Induction of apoptosis in human HeLa cells expressing wild-type p53 at =< 10 uM incubated for 48 hrs by Annexin V/propidium iodide-staining based flow cytometric analysis relative to control; format: functional
[12] = test system: HCT-116; test: Induction of cell membrane disruption in human HCT116 cells expressing wild-type p53 at =>20 uM incubated for 4 hrs by LDH assay relative to control; format: functional
[13] = test system: MCF7; test: Induction of apoptosis in human MCF7 cells expressing wild-type p53 at =< 10 uM incubated for 48 hrs by Annexin V/propidium iodide-staining based flow cytometric analysis relative to control; format: functional
[14] = test system: HeLa; test: Induction of cell membrane disruption in human HeLa cells expressing wild-type p53 at =>20 uM incubated for 4 hrs by LDH assay relative to control; format: functional
[15] = Permeability of the compound in human HeLa cells at 5 uM incubated for 2 hrs by flow cytometric analysis relative to CPP9; format: ADME, cell-based

**Q.** For CC[C@H](C)[C@@H]1NC(=O)[C@@H](NC(=O)[C@H](CCC(=O)O)NC(=O)[C@@H]2CCCN2C(=O)[C@H](Cc2ccc(O)cc2)NC(=O)CNC(=O)CNC(C)=O)CC(=O)NCCCC[C@@H](C(=O)N[C@@H](Cc2cnc[nH]2)C(=O)N[C@@H](CC(C)C)C(=O)N[C@@H](CCC(N)=O)C(=O)N[C@@H](CCCNC(=N)N)C(=O)N[C@H](C(=O)N[C@H](C(=O)N[C@@H](CC(C)C)C(=O)NCCOCCOCC(=O)NCCOCCOCC(=O)N[C@@H](CNC(=O)[C@H](CCCNC(=N)N)NC(=O)[C@H](CCCNC(=N)N)NC(=O)[C@H](CCCNC(=N)N)NC(=O)[C@H](CCCNC(=N)N)NC(=O)[C@H](CCCNC(=N)N)NC(=O)[C@H](CCCNC(=N)N)NC(=O)[C@H](CCCNC(=N)N)NC(=O)[C@H](CCCNC(=N)N)NC(=O)[C@H](CCCNC(=N)N)NC(C)=O)C(N)=O)[C@@H](C)CC)C(C)C)NC(=O)[C@H](CC(=O)O)NC(=O)[C@H](CC(C)C)NC1=O, which IC50 [1] is on record?
**A.** > 20 µM

**Q.** And the Activity [2]?
**A.** Active

**Q.** With CC(=O)N[C@@H](Cc1ccc(O)cc1)C(=O)NCC(=O)N[C@@H](CCCNC(=N)N)C(=O)N[C@@H](CCCCN)C(=O)N[C@@H](CCCCN)C(=O)N[C@@H](CCCNC(=N)N)C(=O)N[C@@H](CCCNC(=N)N)C(=O)N[C@@H](CCC(N)=O)C(=O)N[C@@H](CCCNC(=N)N)C(=O)N[C@@H](CCCNC(=N)N)C(=O)N[C@@H](CCCNC(=N)N)C(=O)NCCCC[C@H](NC(=O)COCCOCCNC(=O)[C@H](CO)NC(=O)[C@@H](NC(=O)[C@H](CC(C)C)NC(=O)[C@H](CCC(N)=O)NC(=O)[C@@H]1CCCCNC(=O)C[C@H](NC(=O)[C@H](Cc2ccccc2)NC(=O)[C@@H](NC(=O)[C@H](CC(C)C)NC(C)=O)[C@@H](C)O)C(=O)N[C@@H](Cc2cnc[nH]2)C(=O)N[C@@H](Cc2ccc(O)cc2)C(=O)N[C@@H](Cc2c[nH]c3ccccc23)C(=O)N1)[C@@H](C)O)C(N)=O as the compound, how does the Activity [3] read?
**A.** Toxic

**Q.** And the Activity [4]?
**A.** Toxic

**Q.** And the Activity [5]?
**A.** inactive

**Q.** Which results are given for CC[C@H](C)[C@@H]1NC(=O)[C@@H](NC(=O)[C@H](CCC(=O)O)NC(=O)[C@@H]2CCCN2C(=O)[C@H](Cc2ccc(O)cc2)NC(=O)CNC(=O)CNC(C)=O)CC(=O)NCCCC[C@@H](C(=O)N[C@@H](Cc2cnc[nH]2)C(=O)N[C@@H](CC(C)C)C(=O)N[C@@H](CCC(N)=O)C(=O)N[C@@H](CCCNC(=N)N)C(=O)N[C@H](C(=O)N[C@H](C(=O)N[C@@H](CC(C)C)C(=O)NCCOCCOCC(=O)NCCOCCOCC(=O)N[C@@H](CNC(=O)[C@H](CCCNC(=N)N)NC(=O)[C@H](CCCNC(=N)N)NC(=O)[C@H](CCCNC(=N)N)NC(=O)[C@H](CCC(N)=O)NC(=O)[C@H](CCCNC(=N)N)NC(=O)[C@H](CCCNC(=N)N)NC(=O)[C@H](CCCCN)NC(=O)[C@H](CCCCN)NC(=O)[C@H](CCCNC(=N)N)NC(=O)CNC(=O)[C@H](Cc2ccc(O)cc2)NC(C)=O)C(N)=O)[C@@H](C)CC)C(C)C)NC(=O)[C@H](CC(=O)O)NC(=O)[C@H](CC(C)C)NC1=O?
**A.** IC50 [1]: > 20 µM; Activity [2]: Active

**Q.** What does the source list for CC(=O)N[C@@H](CCCNC(=N)N)C(=O)N[C@@H](CCCNC(=N)N)C(=O)N[C@@H](CCCNC(=N)N)C(=O)N[C@@H](CCCNC(=N)N)C(=O)N[C@@H](CCCNC(=N)N)C(=O)N[C@@H](CCCNC(=N)N)C(=O)N[C@@H](CCCNC(=N)N)C(=O)N[C@@H](CCCNC(=N)N)C(=O)N[C@@H](CCCNC(=N)N)C(=O)NCCCC[C@H](NC(=O)COCCOCCNC(=O)[C@H](CO)NC(=O)[C@@H](NC(=O)[C@H](CC(C)C)NC(=O)[C@H](CCC(N)=O)NC(=O)[C@@H]1CCCCNC(=O)C[C@H](NC(=O)[C@H](Cc2ccccc2)NC(=O)[C@@H](NC(=O)[C@H](CC(C)C)NC(C)=O)[C@@H](C)O)C(=O)N[C@@H](Cc2cnc[nH]2)C(=O)N[C@@H](Cc2ccc(O)cc2)C(=O)N[C@@H](Cc2c[nH]c3ccccc23)C(=O)N1)[C@@H](C)O)C(N)=O?
**A.** Activity [3]: Toxic; Activity [4]: Toxic; Activity [5]: inactive

**Q.** For CC(=O)N[C@@H](CC(C)C)C(=O)N[C@H](C(=O)N[C@@H](Cc1ccccc1)C(=O)N[C@H]1CC(=O)NCCCC[C@@H](C(=O)N[C@@H](CCC(N)=O)C(=O)N[C@@H](CC(C)C)C(=O)N[C@H](C(=O)N[C@@H](CO)C(=O)NCCOCCOCC(=O)N[C@@H](CCCCN)C(N)=O)[C@@H](C)O)NC(=O)[C@H](Cc2c[nH]c3ccccc23)NC(=O)[C@H](Cc2ccc(O)cc2)NC(=O)[C@H](Cc2cnc[nH]2)NC1=O)[C@@H](C)O (Ac-LTFDHYWKQLTS[AEEA]K-NH2; lactam 4-8), which Activity [6] is on record?
**A.** inactive

**Q.** Which Activity [3] does the source give for CC(=O)N[C@@H](CC(C)C)C(=O)N[C@H](C(=O)N[C@@H](Cc1ccccc1)C(=O)N[C@H]1CC(=O)NCCCC[C@@H](C(=O)N[C@@H](CCC(N)=O)C(=O)N[C@@H](CC(C)C)C(=O)N[C@H](C(=O)N[C@@H](CO)C(=O)NCCOCCOCC(=O)N[C@@H](CCCCNC(=O)CC[C@@H]2NC(=O)[C@@H](CCCNC(=N)N)NC(=O)[C@H](CCCNC(=N)N)NC(=O)[C@@H](CCCNC(=N)N)NC(=O)[C@H](CCCNC(=N)N)NC(=O)[C@H](Cc3ccc4ccccc4c3)NC(=O)[C@@H](Cc3ccccc3)NC2=O)C(N)=O)[C@@H](C)O)NC(=O)[C@H](Cc2c[nH]c3ccccc23)NC(=O)[C@H](Cc2ccc(O)cc2)NC(=O)[C@H](Cc2cnc[nH]2)NC1=O)[C@@H](C)O (I: Ac-LTFDHYWKQLTS[AEEA]K-NH2 / II: cyclo([2Nal]R[dR]R[dR]E[dF]); lactam I:4-I:8; amide I:14-II:6) here?
**A.** Toxic

**Q.** What about the Activity [7] of the same compound?
**A.** 100%

**Q.** And the EC50 [8]?
**A.** 3.8 µM

**Q.** And the Activity [4]?
**A.** Toxic

**Q.** What about the Activity [9] of the same compound?
**A.** 5 - 50%

**Q.** And the Activity [10]?
**A.** Active

**Q.** And the Activity [11]?
**A.** 5 - 50%

**Q.** What about the Activity [12] of the same compound?
**A.** 100%

**Q.** And the Activity [13]?
**A.** 5 - 50%

**Q.** What about the Activity [14] of the same compound?
**A.** 100%

**Q.** And the Activity [5]?
**A.** Dose-dependent effect

**Q.** For CC[C@H](C)[C@@H]1NC(=O)[C@@H](NC(=O)[C@H](CCC(=O)O)NC(=O)[C@@H]2CCCN2C(=O)[C@H](CC(N)=O)NC(=O)[C@H](CCC(=O)O)NC(=O)CCNC(=O)c2ccc(-c3c4ccc5cc(O)ccc5c4oc4c3ccc3cc(=O)ccc34)c(C(=O)O)c2)CSCc2cccc(c2)CSC[C@@H](C(=O)N[C@@H](Cc2cnc[nH]2)C(=O)N[C@H](C(=O)N[C@@H](CCC(N)=O)C(=O)N[C@@H](CCCNC(=N)N)C(=O)N[C@H](C(=O)N[C@@H](CCSC)C(N)=O)C(C)C)C(C)C)NC(=O)[C@H](CC(=O)O)NC(=O)[C@H](CC(C)C)NC1=O ({X2-βAla}-ENPECILDCHVQRVM-NH2; linker 5-9 via mXylylene), which permeability [15] is on record?
**A.** 2.5%

**Q.** Which permeability [15] does the source give for CC[C@H](C)[C@@H]1NC(=O)[C@@H](NC(=O)[C@H](CCC(=O)O)NC(=O)[C@@H]2CCCN2C(=O)[C@H](CC(N)=O)NC(=O)CCNC(=O)c2ccc(-c3c4ccc5cc(O)ccc5c4oc4c3ccc3cc(=O)ccc34)c(C(=O)O)c2)CSCc2cccc(c2)CSC[C@@H](C(=O)N[C@@H](Cc2cnc[nH]2)C(=O)N[C@H](C(=O)N[C@@H](CCC(N)=O)C(=O)N[C@@H](CCCNC(=N)N)C(=O)N[C@H](C(=O)N[C@@H](CCSC)C(N)=O)C(C)C)C(C)C)NC(=O)[C@H](CC(=O)O)NC(=O)[C@H](CC(C)C)NC1=O ({X2-βAla}-NPECILDCHVQRVM-NH2; linker 4-8 via mXylylene) here?
**A.** 8.9%

**Q.** With COc1ccc(C2=N[C@@H](c3ccc(Cl)cc3)[C@@H](c3ccc(Cl)cc3)N2C(=O)N2CCNC(=O)C2)c(OC(C)C)c1 [NUTLIN-3] as the compound, how does the EC50 [8] read?
**A.** 4.2 µM
